Data from US7109380B2, “Cyclopentenedione antifungal compounds and methods for their use” (The University of Mississippi, priority 2004, dated 2006).
Values after ≈ are worked out from the molar mass of the structure shown. Each block holds one compound with its values, some of them ahead of it.

Columns and labels:
[1] = test system: Cryptococcus neoformans ATCC 90113; assay: In vitro antifungal susceptibility testing (modified NCCLS method); format: cell-based; details: Cryptococcus neoformans, ATCC90113; Cr. neoformans ATCC 90113, Table 3; read-out: IC50 (50% inhibitory concentration)
C. glabrata ATCC 90030 = assay: In vitro antimicrobial assay (modified NCCLS), Candida media pH 4.5; format: cell-based, Candida glabrata; details: Nakaseomyces glabratus, ATCC90030, C. glabrata ATCC 90030, pH 4.5
C. krusei ATCC 6258 = assay: as above; format: cell-based, Candida krusei; details: Pichia kudriavzevii, ATCC6258; C. krusei ATCC 6258, pH 4.5; read-out: IC50 (50% inhibitory concentration)
C. albicans ATCC 90028 = assay: as above; format: cell-based, Candida albicans; details: Candida albicans, ATCC90028, C. albicans ATCC 90028, pH 4.5, Table 3
Colletotrichum acutatum = assay: 96-well microtiter fungal growth assay; format: cell-based;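 further: percent relative to untreated positive growth controls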
Source text: (§1) Pathogen collection. Isolates of Colletotrichum acutatum Simmonds, Colletotrichum fragariae Brooks, and Colletotrichum gloeosporioides (Penz.) Penz. & Sacc. in Penz. were obtained from B. J. Smith, USDA, ARS, Small Fruit Research Station, Poplarville, Mass. Colletotrichum fragariae (isolate CF63), C. acutatum (isolate CAGoff), and C. gloeosporioides (isolate CG162) were used for all pathogen and bioautography studies. Isolate CF63 is one of the most virulent isolates at infecting strawberry plants and inducing both crown and fruit rot (Smith and Black, 1990). CF63, CAGoff, and CG162 were used as standard test isolates because of our extensive knowledge of these isolates and their known fungicide sensitivity profiles in both bioautography and microtiter formats. The three Colletotrichum species were isolated from strawberry (Fragaria xananassa Duchesne). Botrytis cinerea Pers.:Fr, was isolated from commercial grape (Vitis vinifera L.) and Fusarium oxysporum Schlechtend:Fr from orchid (Cynoches sp.) by David E. Wedge, USDA ARS Natural Products Utilization Research Unit. Phomopsis viticola (Sacc.) and P. obscurans (Ellis & Everh.) Sutton were from Mike A. Ellis, Ohio State University, Wooster, Ohio. Fungi were grown on potato-dextrose agar (PDA, Difco, Detroit Mich.) in 9 cm petri dishes and incubated in a growth chamber at 24±2° C. and under cool-white fluorescent lights ([…]·m^−2·sec^−1 light) with 12-h photoperiod.
(§2) Inoculum preparation. Conidia were harvested from 7–10 day-old cultures by flooding plates with 5 mL of sterile distilled water and dislodging conidia by softly brushing the colonies with an L-shaped glass rod. Conidial suspensions were filtered through sterile miracloth (Calbiochem-Novabiochem Corp., La Jolla Calif.) to remove mycelia. Conidia concentrations were determined photometrically, from a standard curve based on the absorbance at 625 nm and suspensions were then adjusted with sterile distilled water to a concentration of 1.0×10^6 conidia/mL.
(§3) Microtiter assay. A standardized 96-well microtiter plate assay developed for discovery of natural product fungicidal agents. A 96-well microtiter assay was used to determine sensitivity of B. cinerea, C. acutatum, C. fragariae, C. gloeosporioides, F. oxysporum, Phomopsis viticola, and P. obscurans to the various antifungal agents in comparison with known fungicidal standards. Vinclozolin, captan, and thiabendazole, which represent three different modes of action, were used as standards in this experiment. Each fungus was challenged in a dose-response format using test compounds where the final treatment concentrations were 0.3, 3.0 and 30.0 μM. Microtiter plates (Nunc MicroWell, untreated; Roskilde, Denmark) were covered with a plastic lid and incubated in a growth chamber at 24±1 C and 12 h photoperiod under 60±5 μmol light. Growth was then evaluated by measuring absorbance of each well at 620 nm using a microplate photometer (Packard Spectra Count, Packard Instrument Co., Downers Grove, Ill.).
(§4) Microbioassay Experimental Design. Chemical sensitivity of each fungus 96-well microtiter assay is used to determine sensitivity of B. cinerea, C. acutatum, C. fragariae, C. gloeosporioides, F. oxysporum, Phomopsis viticola, and P. obscurans. Each chemical is evaluated in duplicate at each dose (0.3, 3.0 and 30.0 μM) and repeated twice in time. Sixteen wells containing broth and inoculum serves as positive controls, eight wells containing solvent at the appropriate concentration and broth without inoculum are used as negative controls. Mean absorbance values and standard errors is used to evaluate fungal growth at 48 hrs and 72 hrs except for P. obscurans and P. viticola the data are recorded at 120 hrs. […] Treatments are arranged as a split-plot design replicated twice in time. Whole-plots were fungal isolates and sub-plots are chemicals. Each dose level and response time is analyzed separately. […]

[2] = test system: Colletotrichum gloeosporioides; assay: 96-well microtiter fungal growth assay; format: cell-based;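 further: percent relative to untreated positive growth controls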
Source text: as §1, §2, §3, §4

Fusarium oxysporum = assay: 96-well microtiter fungal growth assay; format: cell-based;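 further: percent relative to untreated positive growth controls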
Source text: as §1, §2, §3, §4

Botrytis cinerea = assay: 96-well microtiter fungal growth assay; format: cell-based;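 further: percent relative to untreated positive growth controls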
Source text: as §1, §2, §3, §4

Colletotrichum fragariae = assay: 96-well microtiter fungal growth assay; format: cell-based;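 further: percent relative to untreated positive growth controls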
Source text: as §1, §2, §3, §4

Phomopsis viticola = assay: 96-well microtiter fungal growth assay; format: cell-based;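 further: percent relative to untreated positive growth controls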
Source text: as §1, §2, §3
(§5) Microbioassay Experimental Design. Chemical sensitivity of each fungus 96-well microtiter assay is used to determine sensitivity of B. cinerea, C. acutatum, C. fragariae, C. gloeosporioides, F. oxysporum, Phomopsis viticola, and P. obscurans. Each chemical is evaluated in duplicate at each dose (0.3, 3.0 and 30.0 μM) and repeated twice in time. Sixteen wells containing broth and inoculum serves as positive controls, eight wells containing solvent at the appropriate concentration and broth without inoculum are used as negative controls. […] Treatments are arranged as a split-plot design replicated twice in time. Whole-plots were fungal isolates and sub-plots are chemicals. Each dose level and response time is analyzed separately. The SAS system's analysis of variance procedure (Statistical Analysis System, Cary, N.C.) is used to identify significant factors and Fisher's protected LSD is used to separate means.

Phomopsis obscurans = assay: 96-well microtiter fungal growth assay; format: cell-based
Source text: as §1, §2, §3, §5

[3] = read-out: IC50 (50% inhibitory concentration)

IC50 [1]: 5 µg/mL (≈ 30.1 µM) | IC50 (C. glabrata ATCC 90030; [3]): 3.5 µg/mL (≈ 21.1 µM) | MIC (C. glabrata ATCC 90030; read-out: MIC): 5 µg/mL (≈ 30.1 µM) | IC50 (C. krusei ATCC 6258): 10 µg/mL (≈ 60.2 µM) | IC50 (C. albicans ATCC 90028; [3]): 2 µg/mL (≈ 12 µM) | MIC (C. albicans ATCC 90028; read-out: MIC): 5 µg/mL (≈ 30.1 µM)
Structure (SMILES): COC(C)=C1C(=O)C=C(C)C1=O [Compound 6, 2-(1-methoxy-ethylidene)-4-methyl-cyclopent-4-ene-1,3-dione]
MFC (C. albicans ATCC 90028; read-out: MFC): 20 µg/mL (≈ 120 µM)

Structure (SMILES): Cc1cc(C2CC2)nc(Nc2ccccc2)n1 [Cyprodinil]
Mean percent fungal growth inhibition of Colletotrichum acutatum (Colletotrichum acutatum; 0.3 μm, 48 hrs): −102.2 ± 0.9% | Mean percent fungal growth inhibition of Colletotrichum acutatum (Colletotrichum acutatum; 0.3 μm, 72 hrs): −94.5 ± 4.4% | Mean percent fungal growth inhibition of Colletotrichum acutatum (Colletotrichum acutatum; 3.0 μm, 48 hrs): −98.1 ± 0.7% | Mean percent fungal growth inhibition of Colletotrichum acutatum (Colletotrichum acutatum; 3.0 μm, 72 hrs): −98.3 ± 0.6% | Mean percent fungal growth inhibition of Colletotrichum acutatum (Colletotrichum acutatum; 30 μm, 48 hrs): −99.7 ± 0.7% | Mean percent fungal growth inhibition of Colletotrichum acutatum (Colletotrichum acutatum; 30 μm, 72 hrs): −99.0 ± 0.3% | Mean percent fungal growth inhibition of Colletotrichum gloeosporoides ([2]; 0.3 μm, 48 hrs): −89.9 ± 2.7% | Mean percent fungal growth inhibition of Colletotrichum gloeosporoides ([2]; 0.3 μm, 72 hrs): −62.9 ± 9.3% | Mean percent fungal growth inhibition of Colletotrichum gloeosporoides ([2]; 3.0 μm, 48 hrs): −85.4 ± 6.6% | Mean percent fungal growth inhibition of Colletotrichum gloeosporoides ([2]; 3.0 μm, 72 hrs): −76.4 ± 6.3% | Mean percent fungal growth inhibition of Colletotrichum gloeosporoides ([2]; 30 μm, 48 hrs): −95.1 ± 1.0% | Mean percent fungal growth inhibition of Colletotrichum gloeosporoides ([2]; 30 μm, 72 hrs): −91.1 ± 1.6% | Mean percent fungal growth inhibition of Fusarium oxysporum (Fusarium oxysporum; 0.3 μm, 48 hrs): 16.4 ± 3.9% | Mean percent fungal growth inhibition of Fusarium oxysporum (Fusarium oxysporum; 0.3 μm, 72 hrs): 7.9 ± 2.9% | Mean percent fungal growth inhibition of Fusarium oxysporum (Fusarium oxysporum; 3.0 μm, 48 hrs): 2.6 ± 2.6% | Mean percent fungal growth inhibition of Fusarium oxysporum (Fusarium oxysporum; 3.0 μm, 72 hrs): 1.8 ± 2.7% | Mean percent fungal growth inhibition of Fusarium oxysporum (Fusarium oxysporum; 30 μm, 48 hrs): −67.4 ± 4.3% | Mean percent fungal growth inhibition of Fusarium oxysporum (Fusarium oxysporum; 30 μm, 72 hrs): −41.5 ± 5.1% | Mean percent fungal growth inhibition of Botrytis cinerea (Botrytis cinerea; 0.3 μm, 48 hrs): −96.6 ± 2.3% | Mean percent fungal growth inhibition of Botrytis cinerea (Botrytis cinerea; 0.3 μm, 72 hrs): 26.56 ± 14.1% | Mean percent fungal growth inhibition of Botrytis cinerea (Botrytis cinerea; 3.0 μm, 48 hrs): −90.2 ± 3.3% | Mean percent fungal growth inhibition of Botrytis cinerea (Botrytis cinerea; 3.0 μm, 72 hrs): −81.4 ± 9.2% | Mean percent fungal growth inhibition of Botrytis cinerea (Botrytis cinerea; 30 μm, 48 hrs): −94.2 ± 2.1% | Mean percent fungal growth inhibition of Botrytis cinerea (Botrytis cinerea; 30 μm, 72 hrs): −96.2 ± 1.5% | Mean percent fungal growth inhibition of Colletotrichum fragariae (Colletotrichum fragariae; 0.3 μm, 48 hrs): −94.1 ± 1.4% | Mean percent fungal growth inhibition of Colletotrichum fragariae (Colletotrichum fragariae; 0.3 μm, 72 hrs): −54.1 ± 19.3% | Mean percent fungal growth inhibition of Colletotrichum fragariae (Colletotrichum fragariae; 3.0 μm, 48 hrs): −89.0 ± 1.6% | Mean percent fungal growth inhibition of Colletotrichum fragariae (Colletotrichum fragariae; 3.0 μm, 72 hrs): −76.7 ± 4.7% | Mean percent fungal growth inhibition of Colletotrichum fragariae (Colletotrichum fragariae; 30 μm, 48 hrs): −95.5 ± 0.5% | Mean percent fungal growth inhibition of Colletotrichum fragariae (Colletotrichum fragariae; 30 μm, 72 hrs): −92.5 ± 3.2% | Mean percent fungal growth inhibition of Phomopsis viticola (Phomopsis viticola; 0.3 μm, 120 hrs): −219 ± 122.1% | Mean percent fungal growth inhibition of Phomopsis viticola (Phomopsis viticola; 3.0 μm, 120 hrs): −184.6 ± 87.0% | Mean percent fungal growth inhibition of Phomopsis viticola (Phomopsis viticola; 3.0 μm, 144 hrs): 451.7 ± 331.5% | Mean percent fungal growth inhibition of Phomopsis viticola (Phomopsis viticola; 30 μm, 120 hrs): −176.2 ± 48.2% | Mean percent fungal growth inhibition of Phomopsis viticola (Phomopsis viticola; 30 μm, 144 hrs): 80.4 ± 111.6% | Percent change in fungal growth vs control (negative = inhibition) (Phomopsis obscurans; 0.3 μm, 120 hrs): −51.4 ± 5.9% | Percent change in fungal growth vs control (negative = inhibition) (Phomopsis obscurans; 0.3 μm, 144 hrs): −46.3 ± 6.0% | Percent change in fungal growth vs control (negative = inhibition) (Phomopsis obscurans; 3.0 μm, 120 hrs): −64.5 ± 10.7% | Percent change in fungal growth vs control (negative = inhibition) (Phomopsis obscurans; 3.0 μm, 144 hrs): −72.6 ± 3.9% | Percent change in fungal growth vs control (negative = inhibition) (Phomopsis obscurans; 30 μm, 120 hrs): −86.8 ± 1.3% | Percent change in fungal growth vs control (negative = inhibition) (Phomopsis obscurans; 30 μm, 144 hrs): −81.5 ± 2.5%
